# Assay results: EP2039683B1, “Vasculostatic agents and methods of use thereof” (Targegen, Inc., priority 2002, dated 2004)
# Columns and labels:
# histamine as agonist = test: Miles assay, histamine as agonist; format: in vivo, Sprague-Dawley rats; details: 1.5 mg/kg; histamine 10 µg/injection site; vehicle 12
# Method: Sprague-Dawley rats were first injected IV with vehicle alone or test agent, followed by IV injection of Evans blue dye, followed by intradermal injections of saline and VEGF (200 ng/injection site) along both shaved flanks.
# The ability of test agents to influence edema induced by agonists other than VEGF was also tested.
# The ability of test agent to influence vascular edema was tested as above, except that the ability to block edema was tested using either VEGF or histamine as the agonist (200 ng and 10 µg/injection site, respectively).
# [1] = Oleic acid induced ARDS lung edema, wet/dry weight; format: in vivo, NIH Swiss mice; details: 0.5 mg/kg range; 1.5 mg/kg Oleic Acid intraperitoneal, lungs collected after four hours
# Method: FIGURE 12 (omitted) illustrates the effects of invention compounds for their capacity to inhibit edema associated with Acute Respiratory Distress Syndrome (ARDS). NIH Swiss mice were given an intraperitoneal injection of 1.5 mg/kg Oleic Acid of (in this example formulated in saline) and/or invention compounds.
# NIH Swiss mice were given an intraperitoneal injection of 1.5 mg/kg Oleic Acid of (in this example formulated in saline) and/or invention compounds.
# CTLL2 = test: IL-2 dependent T-cell proliferation, XTT assay; format: cell-based, mouse; details: 96 hours, 50 pg human recombinant IL-2
# IL-2 induced VLS = test: IL-2 induced vascular leak syndrome, organ wet/dry weight; details: compound D in the 1 mg/kg range, compound E in the 0.1 mg/kg range; for reduction of VLS in the heart / reduction of VLS in the spleen: 9 injections of murine IL-2 and/or compound over 4 days
# Excerpt: BalbC mice were given 9 injections of the indicated dose of murine IL-2 (in this example formulated in saline with 5% bovine serum albumin) and/or invention compounds over a period of 4 days. Animals were then sacrificed followed by collection, blotting and weighing (wet weight) of heart, lungs, and spleen.
# BalbC mice were given 9 injections of the indicated dose of murine IL-2 and/or invention compounds over a period of 4 days. Animals were then sacrificed followed by collection, blotting and weighing (wet weight) of heart, lungs, and spleen.
# [2] = Cerebral stroke model, permanent middle cerebral artery occlusion; format: in vivo, mice; details: 1 mg/kg BW IV 60 min after ligation; for Infarct area in mm^3 (mean ± SEM): twenty four hours later; for % Infarct reduction: versus vehicle of the same study
# Method: Cerebral strokes were created in mice by permanent ligation of the middle cerebral artery using a cauterizing tool, followed 60 min later by IV injection of either vehicle alone (50% PEG400 in water) or test agents (at 1 mg/kg BW). Twenty four hours later, brains were sectioned and stained using triphenyltetrazolium chloride to delineate viable from infarcted tissue.
# angiogenesis = test: Matrigel plug angiogenesis model, FITC-lectin quantification; format: in vivo, Athymic WeHi (nu/nu) mice; details: 10 mg/kg intraperitoneally bid for four days; matrigel with 400 ng/ml bFGF or VEGF
# Method: FIGURE 13 (omitted) and 14 (omitted) illustrate the effects of invention compounds for their capacity to inhibit angiogenesis in vivo. […] Tumor extracellular matrix infused with the 160 ng of the described growth factors were injected subcutaneously in a Balb/C mouse. The described invention compound was injected daily at the described concentration for 5 days. After 5 days the animals were sacrificed and angiogenesis quantified based on the binding of fluorescently labeled, endothelium specific FITC-lectin. In the graph, compound A is 6,7-bis(4-hydroxyphenyl)-pteridin-4-ylamine sulfate salt.
# Referring to FIGURES 13 (omitted) and 14 (omitted), a murine model of angiogenesis was used to screen compounds for their capacity to inhibit angiogenesis. […] In the graph, compound A is 6,7-bis(4-hydroxyphenyl)-pteridin-4-ylamine sulfate salt. Athymic WeHi (nu/nu) mice were first injected with 400; jls of an ice- cold tumor-derived extracellular matrix substrate, matrigel (Becton-Dickinson) infused with 400 ng/ml of bFGF or VEGF (R & D Systems) which rapidly solidifies into a subdermal plug at body temperature. […] Twenty minutes after injection of the lectin, mice were euthanized, matrigel plugs were then extracted, solublized in PBS with mechanical grinding and the fluorescent content of individual plugs was quantified. […]
smiles,measurement,setting,value
"O=C(Nc1ccccc1-c1cc2ccccc2[nH]1)c1cc(O)c(O)c(O)c1 [3,4,5-Trihydroxy-N-[2-(1H-indol-2-yl)-phenyl]-benzamide]",Score with histamine as agonist (scale of 0-12),histamine as agonist,7
"Oc1ncnc2nc(-c3ccccc3)c(-c3ccccc3)nc12 [6,7-Diphenyl-pteridin-4-ol]",Score with histamine as agonist (scale of 0-12),histamine as agonist,4
"Nc1ncnc2nc(-c3ccc(O)c(O)c3)c(-c3ccc(O)c(O)c3)nc12 [compound F, 4-[4-amino-6-(3,4-dihydroxyphenyl)pteridin-7-yl]benzene-1,2-diol]",reduction of ARDS-induced edema,[1],> 100%
"O=C(Nc1cc2ccccc2[nH]1)c1cc(O)c(O)c(O)c1 [3,4,5-Trihydroxy-N-(1H-indol-2-yl)-benzamide]",Score with histamine as agonist (scale of 0-12),histamine as agonist,7
O=C(O)c1ccccc1C(=O)Nc1ccccc1-c1cc2ccccc2[nH]1 [compound D],impact on IL-2 induced T-cell proliferation,CTLL2; in the 1 mg/kg range as printed,no significant impact
same,reduction of VLS in the heart,IL-2 induced VLS,> 100%
same,reduction of VLS in the spleen,IL-2 induced VLS,> 100%
same,reducing VLS in vivo,IL-2 induced VLS,80-100%
same,Infarct area in mm^3 (mean ± SEM),[2],15.6 ± 5.16 mm^3
same,% Infarct reduction,[2],63%
"CN(C)S(=O)(=O)c1ccc2c(c1)/C(=C/c1cc3c([nH]1)CCCC3)C(=O)N2 [SU6656, reference compound]",Infarct area in mm^3 (mean ± SEM),[2],24.3 ± 5.3 mm^3
same,% Infarct reduction,[2],Not significant
"Cc1ccc(-c2nn(C(C)(C)C)c3ncnc(N)c23)cc1 [PP1, reference compound]",% Infarct reduction,[2],Not significant
"Nc1ncnc2nc(-c3ccc(O)cc3)c(-c3ccc(O)cc3)nc12.O=S(=O)(O)O [compound A, 6,7-bis(4-hydroxyphenyl)-pteridin-4-ylamine sulfate salt]",inhibition of angiogenesis in vivo,angiogenesis,successfully inhibited angiogenesis in vivo
Nc1nc(N)c2nc(-c3cccc(O)c3)c(-c3cccc(O)c3)nc2n1.O=S(=O)(O)O [compound E],impact on IL-2 induced T-cell proliferation,CTLL2; in the therapeutic range (< 1pM),no significant impact
same,reduction of VLS in the heart,IL-2 induced VLS,> 100%
same,reduction of VLS in the spleen,IL-2 induced VLS,> 100%
same,reducing VLS in vivo,IL-2 induced VLS,80-100%
